# Assay results taken from PMC6928678, “Simplified Head-to-Tail Cyclic Polypeptides as Biomaterial-Associated Antimicrobials with Endotoxin Neutralizing and Anti-Inflammatory Capabilities” (International Journal of Molecular Sciences, 2019).
# Where two headings read alike, the source gives them in different places. Where a SMILES comes first, the peptide text is derived from it. Where no end group is shown, it is not given here. [ ]: non-standard residue; d: D form.
# Columns and labels:
# [1] = system: gram-negative strains tested; experiment: Geometric mean of MICs, gram-negative strains; assay type: cell-based; settings: 5 gram-negative strains; >128 apparently counted as 256; read-out: nGM (–), geometric mean of the MICs against gram-negative strains
# Protocol: (§1) Briefly, the bacteria were incubated overnight at 37 °C with constant shaking at 220 rpm, then were transferred to new MH broth (MHB) medium until they reached the logarithmic phase of growth. The bacteria were then diluted to 10^5 (CFU)/mL in MHB. The peptides were dissolved and diluted in 0.01% acetic acid and 0.2% bovine serum albumin (BSA) at various concentrations (0.5–128 μM) in each well of sterile 96-well plates and incubated for 20 h at 37 °C. […] The test was repeated three times.
# [2] = system: S. typhimurium 7731; experiment: microbe, parasite or virus in culture; assay type: cell-based
# Protocol: (§2) The test strains, including Gram-negative E. coli ATCC25922, E. coli ATCC 1005, S. typhimurium C7731, P. aeruginosa ATCC 27853, S. Typhimurium 14028, Gram-positive S. aureus ATCC29213, S. aureus ATCC 25923, S. epidermidis ATCC 12228 and S. aureus 43300, were obtained from the School of Veterinary Medicine, Northeast Agricultural University (Harbin, China).
# as §1
# [3] = system: P. aeruginosa 27853; experiment: microbe, parasite or virus in culture; assay type: cell-based
# Protocol: as §2, §1
# [4] = system: S. typhimurium 14028; experiment: microbe, parasite or virus in culture; assay type: cell-based
# Protocol: as §2, §1
# [5] = system: S. epidermidis 12228; experiment: microbe, parasite or virus in culture; assay type: cell-based
# Protocol: as §2, §1
# [6] = system: S. aureus 25923; experiment: microbe, parasite or virus in culture; assay type: cell-based, Staphylococcus aureus
# Protocol: as §2, §1
# [7] = system: S. aureus 29213; experiment: microbe, parasite or virus in culture; assay type: cell-based, Staphylococcus aureus
# Protocol: as §2, §1
# [8] = system: human red blood cells (hRBCs); experiment: Hemolysis assay; assay type: cell-based
# Protocol: Figure 2 (A) Hemolytic activity of the engineered peptides against human red blood cells (hRBCs). The hRBCs were incubated with equal amounts of the respective peptides dissolved in PBS for 1 h at 37 °C. (B) Cytotoxicity of the engineered peptides against RAW264.7. […] Data shown are three independent experiments.
# The hemolytic activity of the peptides is determined by measuring the amount of hemoglobin released during the lysis of human erythrocytes at different concentrations of AMPs. Briefly, fresh, healthy human red blood cells (hRBCs) were collected and then washed three times with phosphate-buffered saline (PBS) buffer (pH 7.2) and centrifuged at 1000× g for 5 min. Each 50 µL sample of hRBCs was incubated with 50 µL of the respective peptide dissolved in PBS in a well of a 96-well plate for 1 h at 37 °C. After incubation, the samples were centrifuged at 1000× g for 5 min and the supernatants (50 μL) were transferred to a new 96-well microplate. The release of hemoglobin was measured by monitoring the OD at 570 nm (Tecan, Salzburg, Austria). Negative (hRBCs without AMP treatment) and positive (hRBCs treated with 0.1% TritonX-100) controls were used. The concentration of peptide that caused 5% hemolysis was considered the minimal hemolysis concentration (MHC). The test was repeated three times. The percent hemolysis was calculated using the following formula:(2) Percent hemolysis=A−A0/At−A0× 100% A0 and At represent 0% and 100% hemolysis as measured in 10 mM PBS and 0.2% Triton X-100, respectively.
# [9] = system: all the 9 bacteria tested; experiment: Geometric mean of MICs, all 9 bacteria; assay type: cell-based; settings: for GM MIC (range of Gram-negative and Gram-positive geometric means): Table 2; for tGM, geometric mean of the MICs against all the 9 bacteria: all 9 bacteria tested
# Protocol: as §1
# [10] = system: MRSA43300; experiment: microbe, parasite or virus in culture; assay type: cell-based, Methicillin-resistant Staphylococcus aureus
# Protocol: as §2, §1
# [11] = system: gram-positive strains tested; experiment: organism not typed; assay type: cell-based
# Protocol: as §1
# [12] = system: E. coli 25922; experiment: microbe, parasite or virus in culture; assay type: cell-based, Escherichia coli
# Protocol: as §2, §1
# [13] = system: E. coli UB 1005; experiment: microbe, parasite or virus in culture; assay type: cell-based, Escherichia coli
# Protocol: as §2, §1
Molecule,MIC [1] [µM],GM MIC (range of Gram-negative and Gram-positive geometric means) [9] [µM],"MIC ([2]; 7731, 20 h) [µM]","MIC ([3]; 27853, 20 h, read-out: MIC) [µM]","MIC ([4]; 14028, 20 h) [µM]","MIC ([5]; 12228, 20 h) [µM]","MIC ([6]; 25923, 20 h) [µM]","MIC ([7]; 29213, 20 h) [µM]","MHC5, minimum hemolytic concentration that induced ≥5% hemolysis ([8]; red cells of human, 1 h) [µM]","tGM, geometric mean of the MICs against all the 9 bacteria [9] [µM]",MIC ([10]; 20 h) [µM],"pGM (+), geometric mean of the MICs against gram-positive strains ([11]; 20 h) [µM]","MIC ([12]; 25922, 20 h) [µM]","MIC ([13]; UB 1005, 20 h) [µM]",further results
"O=C(N[C@H](CO)[C@H](O)c1ccc([N+](=O)[O-])cc1)C(Cl)Cl [CH, Chloramphenicol, reference compound]",18.4,18.4 to 22.6,,,,,,,,,,,,,"MIC ([2]; Salmonella enterica, S. typhimurium 7731, MHB, 10^5 CFU/mL, 20 h 37 °C, repeated three times): 8 µM; MIC ([3]; Pseudomonas aeruginosa, 27853, 20 h): > 128 µM; MIC ([4]; Salmonella enterica, S. typhimurium 14028, MHB, 10^5 CFU/mL, 20 h 37 °C, repeated three times): 16 µM; MIC ([5]; Staphylococcus epidermidis, S. epidermidis 12228, MHB, 10^5 CFU/mL, 20 h 37 °C, repeated three times): 32 µM; MIC ([6]; Staphylococcus aureus, S. aureus 25923, MHB, 10^5 CFU/mL, 20 h 37 °C, repeated three times): 32 µM; MIC ([7]; Staphylococcus aureus, S. aureus 29213, MHB, 10^5 CFU/mL, 20 h 37 °C, repeated three times): 8 µM; MHC5, minimum hemolytic concentration that induced ≥5% hemolysis ([8]; human red blood cells, PBS, 1 h at 37 °C, OD 570 nm, repeated three times): >128 µM; MIC ([9]; read-out: tGM, geometric mean of the MICs against all the 9 bacteria): 20.2 µM; MIC ([10]; Staphylococcus aureus, MRSA43300, MHB, 10^5 CFU/mL, 20 h 37 °C, repeated three times): 32 µM; MIC ([11]; read-out: pGM (+), geometric mean of the MICs against gram-positive strains): 22.6 µM; MIC ([12]; Escherichia coli, E. coli 25922, MHB, 10^5 CFU/mL, 0.5–128 μM peptide, 20 h 37 °C, OD 492 nm, repeated three times): 16 µM; MIC ([13]; Escherichia coli, UB1005, E. coli UB 1005, MHB, 10^5 CFU/mL, 20 h 37 °C, repeated three times): 4 µM"
CC[C@H](C)[C@H](N)C(=O)N[C@@H](CCCNC(=N)N)C(=O)N[C@H](C(=O)N[C@@H](CCCNC(=N)N)C(=O)N1CCC[C@@H]1C(=O)N[C@H](C(=O)N[C@@H](CCCNC(=N)N)C(=O)N[C@H](C(=O)N[C@@H](CCCNC(=N)N)C(=O)N1CCC[C@@H]1C(=O)O)[C@@H](C)CC)[C@@H](C)CC)[C@@H](C)CC [DIR2] (H-IRIR[dP]IRIR[dP]-OH),194.0,,>128,>128,>128,>128,>128,>128,>128,219.5,>128,256,128,128,
CC[C@H](C)[C@H](N)C(=O)N[C@@H](CCCNC(=N)N)C(=O)N[C@H](C(=O)N[C@@H](CCCNC(=N)N)C(=O)N[C@H](C(=O)N[C@@H](CCCNC(=N)N)C(=O)N1CCC[C@@H]1C(=O)N[C@H](C(=O)N[C@@H](CCCNC(=N)N)C(=O)N[C@H](C(=O)N[C@@H](CCCNC(=N)N)C(=O)N[C@H](C(=O)N[C@@H](CCCNC(=N)N)C(=O)N1CCC[C@@H]1C(=O)O)[C@@H](C)CC)[C@@H](C)CC)[C@@H](C)CC)[C@@H](C)CC)[C@@H](C)CC [DIR3] (H-IRIRIR[dP]IRIRIR[dP]-OH),,,4,8,16,128,64,8,>128,,64,45.3,4,4,
"Colistin Sulfate [CS, reference compound]",0.8,0.8 to 76.1,,,,,,,,5.9,,,,,"MIC ([2]; S. typhimurium 7731, MHB, 10^5 CFU/mL, 20 h 37 °C, repeated three times): 0.5 µM; MIC ([3]; P. aeruginosa 27853, MHB, 10^5 CFU/mL, 20 h 37 °C, repeated three times, read-out: MIC): 0.5 µM; MIC ([4]; S. typhimurium 14028, MHB, 10^5 CFU/mL, 20 h 37 °C, repeated three times): 4 µM; MIC ([5]; S. epidermidis 12228, MHB, 10^5 CFU/mL, 20 h 37 °C, repeated three times): 128 µM; MIC ([6]; S. aureus 25923, MHB, 10^5 CFU/mL, 20 h 37 °C, repeated three times): 64 µM; MIC ([7]; S. aureus 29213, MHB, 10^5 CFU/mL, 20 h 37 °C, repeated three times): 64 µM; MIC ([10]; MRSA43300, MHB, 10^5 CFU/mL, 20 h 37 °C, repeated three times): 64 µM; pGM (+), geometric mean of the MICs against gram-positive strains ([11]; 4 gram-positive strains, >128 apparently counted as 256): 76.1 µM; MIC ([12]; E. coli 25922, MHB, 10^5 CFU/mL, 0.5–128 μM peptide, 20 h 37 °C, OD 492 nm, repeated three times): 0.5 µM; MIC ([13]; E. coli UB 1005, MHB, 10^5 CFU/mL, 20 h 37 °C, repeated three times): 0.5 µM"
IRIRIRPIRIRIRP [IR3],12.1,,16,8,16,>128,64,64,>128,,64,90.5,16,8,
IRIRPIRIRP [IR2],256,,>128,>128,>128,>128,>128,>128,>128,256,>128,256,>128,>128,
